In US5180742A, “Quinone derivatives, their production and use” (Takeda Chemical Industries, Ltd., priority 1984, dated 1993):

Test system: Immunoglobulin-G1 mediated bronchoconstriction reaction
Assay: Action on immunoglobulin-G1 mediated bronchoconstriction reaction in guinea pigs
Format: in vivo, Hartley guinea pigs
Conditions: Cavia porcellus; 20 mg/kg oral, 1 hour before antigen
Protocol: Action on the Immunoglobulin-G1 Mediated Bronchoconstriction Reaction in Guinea Pigs
In accordance with the method of Orange and Moore (Orange, R. P. and Moore E. G. , J. Immunol., 116, 392-397, 1976), female and male Hartley guinea pigs weighing about 350 g were sensitized by intraperitoneal application of an emulsion (1 ml) composed of egg albumin (1 mg) and Freund's complete adjuvant (produced by Wako Pure-Chemical Industries, Ltd. of Japan). 3 Weeks after the sensitization, a serum antibody level in the sensitized guinea pigs was measured by means of the 3-hours passive cutaneous anaphylaxis (PCA) reaction in guinea pigs. […] The broncoconstriction reaction resulting from the antigen-antibody reaction was measured in accordance with the Konzett-Rossler method (Konzett, H. and Rossler, R., Naunyn-Schmiedeberg'ss Arch. exp. Path. pharmak., 195, 71-74, 1940). The guinea pigs were fixed on the dorsal position under anesthesia with a urethane (1.5 g/kg given intraperitonealy). An incision was made through the trachea, which was connected to an artificial respirator (manufactured by Harvard Co.) through an endotracheal tube, with a side tube of the endotracheal tube being attached to a brochoconstricting transducer (type 7020, manufactured by Ugobasile Co.). While an air volume per ventilation was adjusted to 5 to 7 ml and an air ventilation rate was controlled at 70 times/min., with a load pressure to the lung set at 10 cm H2 O, the overflown air volume was recorded on Rectigraphy-8S (manufactured by Sanei Sokki Inc. of Japan) through a transducer. After 1 mg/kg of gallamine triethiodide was given intravenously to the animals, 1 mg/kg of antigen, egg albumin dissolved in physiological saline, was applied intravenously to induce a brochoconstriction reaction. The bronchconstriction reaction was recorded for the period of time of 15 minutes. A drug was suspended in 5% gum arabic solution, and given orally 1 hour before the application of the antigen. Percent inhibition of the immunoglobuin G1 mediated bronchoconstriction reaction in guinea pigs are shown below in Table 3.

Row | Structure (SMILES) | inhibition in vivo at 20 mg/kg
1 | CC1=C(C)C(=O)C(C(CCCCCCC(=O)O)c2ccccc2)=C(C)C1=O (stereo not drawn) [Compound No. 9, 8-phenyl-8-(3,5,6-trimethyl-1,4-benzoquinon-2-yl)octanoic acid] | 71%
2 | CC1=C(C)C(=O)C(C(CCCCC(=O)O)c2ccccc2)=C(C)C1=O (stereo not drawn) [Compound No. 10] | 80%
3 | CC1=C(C(CCCCC(=O)O)c2ccccc2)C(=O)c2ccccc2C1=O (stereo not drawn) [Compound No. 12] | 78%
4 | CC1=C(C(CCCCCCC(=O)O)c2ccccc2)C(=O)c2ccccc2C1=O (stereo not drawn) [Compound No. 14] | 78%
5 | CC1=C(C)C(=O)C(C(CCCCCCO)c2ccccc2)=C(C)C1=O (stereo not drawn) [Compound No. 45, 7-(3,5,6-trimethyl-1,4-benzoquinon-2-yl)-7-phenylheptanol] | 91%
6 | CC1=C(C)C(=O)C(C(CCCCCCC(=O)O)c2ccc3c(c2)CCC3)=C(C)C1=O (stereo not drawn) [compound 25] | 83%
7 | COc1ccc(C(CCCCCC(=O)O)C2=C(C)C(=O)c3ccccc3C2=O)cc1 (stereo not drawn) [compound 26] | 85%
8 | CC1=C(C(CCCCCC(=O)O)c2ccc3ccccc3c2)C(=O)c2ccccc2C1=O (stereo not drawn) [compound 27] | 81%
9 | CC1=C(C(CCCCCC(=O)O)c2ccc3c(c2)CCC3)C(=O)c2ccccc2C1=O (stereo not drawn) [compound 28] | 85%
10 | CC1=C(C(CCCCCCC(=O)O)c2ccc3c(c2)CCC3)C(=O)c2ccccc2C1=O (stereo not drawn) [compound 29] | 81%
11 | CC1=C(C(CCCC(=O)O)c2ccccc2)C(=O)c2ccccc2C1=O (stereo not drawn) [compound 38] | 73%
12 | CCCCCCC(C1=C(C)C(=O)C(C)=C(C)C1=O)c1ccccc1 (stereo not drawn) [compound 49] | 84%
13 | CC1=C(C)C(=O)C(C(CCCCCCOC(N)=O)c2ccccc2)=C(C)C1=O (stereo not drawn) [compound 59] | 83%
14 | CC1=C(C)C(=O)C(C(CCCCCCCO)c2ccc3c(c2)CCC3)=C(C)C1=O (stereo not drawn) [compound 76] | 89%
15 | CC1=C(C(CCCCCC(=O)O)c2ccccc2)C(=O)c2ccccc2C1=O (stereo not drawn) [compound 86] | 80%
16 | CC1=C(C(CCCCCC(=O)O)c2ccc(F)cc2)C(=O)c2ccccc2C1=O (stereo not drawn) [compound 89] | 65%

Test system: PAF-induced bronchoconstriction
Assay: Effect on PAF-induced bronchoconstriction in guinea pigs
Format: in vivo
Conditions: 0.31 mg/kg oral, one hour before PAF
Protocol: Platelet Activating Factor (PAF)-Induced Bronchoconstriction in Guinea Pigs
Experimental procedure in this experiment was the same as that in LTD4 -induced bronchoconstriction shown in Experimental example 7. PAF is an intraveneous dose of 1 μg/kg was used. Each specimen suspended in a 5% gum arabic solution was given orally one hour before the PAF administration.

Row | Structure (SMILES) | % Inhibition of PAF-induced bronchoconstriction
17 | CC1=C(C)C(=O)C(C(CCCCCC(N)=O)c2ccccc2)=C(C)C1=O (stereo not drawn) [compound 146, 7-(3,5,6-trimethyl-1,4-benzoquinon-2-yl)-7-phenylheptanamide] | 49.7%

Same assay, conditions: 1.25 mg/kg oral, one hour before PAF

Row | Structure (SMILES) | % Inhibition of PAF-induced bronchoconstriction
18 | CC1=C(C)C(=O)C(C(CCCCCC(N)=O)c2ccccc2)=C(C)C1=O (stereo not drawn) [compound 146, 7-(3,5,6-trimethyl-1,4-benzoquinon-2-yl)-7-phenylheptanamide] | 80.3%

Same assay, conditions: 5 mg/kg oral, one hour before PAF

Row | Structure (SMILES) | % Inhibition of PAF-induced bronchoconstriction
19 | CC1=C(C)C(=O)C(C(CCCCCC(N)=O)c2ccccc2)=C(C)C1=O (stereo not drawn) [compound 146, 7-(3,5,6-trimethyl-1,4-benzoquinon-2-yl)-7-phenylheptanamide] | 100.0%
20 | CC1=C(C)C(=O)C(C(CCCCCC(=O)N2CCN(CCc3ccccc3)CC2)c2ccccc2)=C(C)C1=O (stereo not drawn) [compound 163, 4-[7-(3,5,6-trimethyl-1,4-benzoquinon-2-yl)-7-phenylheptanoyl]-(2-phenylethyl)piperazine] | 59.9%

Target: T1, 5-Lipoxygenase (Rattus norvegicus, UniProt P12527)
T1 construct: endogenous in cells; host or cells: RBL-1 (rat basophilic leukemia cells)
T1 sequence (P12527 1-673): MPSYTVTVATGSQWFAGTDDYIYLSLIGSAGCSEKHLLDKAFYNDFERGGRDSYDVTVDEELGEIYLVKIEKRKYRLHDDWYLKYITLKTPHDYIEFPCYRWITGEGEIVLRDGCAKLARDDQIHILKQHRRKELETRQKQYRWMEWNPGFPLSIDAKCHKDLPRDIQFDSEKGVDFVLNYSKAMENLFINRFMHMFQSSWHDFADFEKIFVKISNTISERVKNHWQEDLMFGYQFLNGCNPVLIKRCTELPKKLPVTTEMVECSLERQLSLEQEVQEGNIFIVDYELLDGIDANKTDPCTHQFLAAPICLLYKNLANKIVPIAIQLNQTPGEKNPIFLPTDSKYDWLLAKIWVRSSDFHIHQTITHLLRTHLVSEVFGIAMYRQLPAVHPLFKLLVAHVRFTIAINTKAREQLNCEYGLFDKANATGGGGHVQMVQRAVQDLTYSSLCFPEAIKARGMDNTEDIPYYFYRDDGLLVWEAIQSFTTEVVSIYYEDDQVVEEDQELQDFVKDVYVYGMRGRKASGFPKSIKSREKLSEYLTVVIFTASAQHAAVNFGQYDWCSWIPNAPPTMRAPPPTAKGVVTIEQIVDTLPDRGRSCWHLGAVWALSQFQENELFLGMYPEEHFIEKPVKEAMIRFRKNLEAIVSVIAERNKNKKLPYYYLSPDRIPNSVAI
Assay: 5-Lipoxygenase inhibitory activity: 5-HETE production in RBL-1 cells (HPLC)
Format: cell-based, rat (RBL-1, rat basophilic leukemia cells)
Conditions: arachidonic acid + A 23187, 37° C., 20 minutes, read-out: 5-HETE production inhibiting effect (IC50)
Protocol: 5-Lipoxygenase Inhibitory Activity
10^7 RBL-1 cells (rat basophilic leukemia cells) were suspended in 0.5 ml of MCM (mast cell medium), and test solutions (made up of 0.5 ml of MCM, 50 μg of arachidonic acid, 10 μg of A 23187 (calcium ionophore, Eli Lilly) and 1 μM, 0.1 μM, 0.01 μM and0.001 μM as the final concentration of the quinone compound, respectively) prepared previously were added respectively to the suspension, followed by reaction at 37° C. for 20 minutes. After the conclusion of the reaction, 4 ml of ethanol and 1,4-dimethoxy-2-methyl-3-(3-methoxypropyl)naphthalene as the internal reference drug were added to the reaction solution, and the mixture was shaken thoroughly and allowed to stand at room temperature for 10 minutes. Then, it was centrifuged (2000 r.p.m.) for 10 minutes, and the supernatant fluid was separated and concentrated to dryness under reduced pressure. 0.5 Milliliter of 60% aqueous methanol was added to the concentrate, and 100 μl of the resulting solution was taken and subjected to high-performance liquid chromatography to determine amount of 5-HETE (5-hydroxyeicosatetraenoic acid). Determination of 5-HETE was made through measurement of an absorption at 237 nm with a UV absorption monitor.
The 5-HETE production inhibitory effect (IE) was expressed by [formula] wherein a is a peak height or peak area corrected by the peak for the internal reference when the quinone compound is not contained; b is a peak height or peak area corrected by the peak for the internal reference when the quinone compound is contained.

Row | Structure (SMILES) | IC50
21 | CCOC(=O)CCCCC(C1=C(C)C(=O)C(C)=C(C)C1=O)c1cccs1 (stereo not drawn) [Compound No. 1, ethyl 6-(3,5,6-trimethyl-1,4-benzoquinon-2-yl)-6-(2-thienyl)hexanoate] | 80 nM
22 | CCOC(=O)CCCCC(C1=C(C)C(=O)c2ccccc2C1=O)c1cccs1 (stereo not drawn) [Compound No. 3] | 60 nM
23 | CCOC(=O)CCCCC(C1=C(C)C(=O)c2ccccc2C1=O)c1ccccc1 (stereo not drawn) [Compound No. 5] | 30 nM
24 | CCOC(=O)CCCCC(C1=C(C)C(=O)C(OC)=C(OC)C1=O)c1cccs1 (stereo not drawn) [Compound No. 6] | 28 nM
25 | CCOC(=O)CCCCC(C1=C(C)C(=O)C(OC)=C(OC)C1=O)c1ccccc1 (stereo not drawn) [Compound No. 7] | 140 nM
26 | CC1=C(C)C(=O)C(C(CCCCCCC(=O)O)c2ccccc2)=C(C)C1=O (stereo not drawn) [Compound No. 9, 8-phenyl-8-(3,5,6-trimethyl-1,4-benzoquinon-2-yl)octanoic acid] | 32 nM
27 | CC1=C(C)C(=O)C(C(CCCCC(=O)O)c2ccccc2)=C(C)C1=O (stereo not drawn) [Compound No. 10] | 34 nM
28 | CC1=C(C)C(=O)C(C(CCCCCCCCC(=O)O)c2ccccc2)=C(C)C1=O (stereo not drawn) [Compound No. 11] | 34 nM
29 | CC1=C(C(CCCCC(=O)O)c2cccs2)C(=O)c2ccccc2C1=O (stereo not drawn) [Compound No. 13] | 80 nM
30 | CC1=C(C(CCCCCCC(=O)O)c2ccccc2)C(=O)c2ccccc2C1=O (stereo not drawn) [Compound No. 14] | 200 nM
31 | CC1=C(C)C(=O)C(C(CCC(=O)O)c2ccccc2)=C(C)C1=O (stereo not drawn) [Compound No. 35, 4-(3,5,6-trimethyl-1,4-benzoquinon-2-yl)-4-phenylbutyric acid] | 440 nM
32 | COC1=C(OC)C(=O)C(C(CCC(=O)O)c2ccccc2)=C(C)C1=O (stereo not drawn) [Compound No. 39] | 1300 nM
33 | CC1=C(C)C(=O)C(C(CCCCCCO)c2ccccc2)=C(C)C1=O (stereo not drawn) [Compound No. 45, 7-(3,5,6-trimethyl-1,4-benzoquinon-2-yl)-7-phenylheptanol] | 28 nM
34 | COC1=C(OC)C(=O)C(C(CCCCCCO)c2ccccc2)=C(C)C1=O (stereo not drawn) [Compound No. 56, 7-(5,6-dimethoxy-3-methyl-1,4-benzoquinon-2-yl)-7-phenylheptanol] | 62 nM
35 | CC1=C(C(CCCCCCCCC(=O)O)c2ccccc2)C(=O)c2ccccc2C1=O (stereo not drawn) [compound 15] | 50 nM
36 | COC1=C(OC)C(=O)C(C(CCCCC(=O)O)c2ccccc2)=C(C)C1=O (stereo not drawn) [compound 16] | 32 nM
37 | COC1=C(OC)C(=O)C(C(CCCCC(=O)O)c2cccs2)=C(C)C1=O (stereo not drawn) [compound 17] | 200 nM
38 | COC1=C(OC)C(=O)C(C(CCCCCCC(=O)O)c2ccccc2)=C(C)C1=O (stereo not drawn) [compound 18] | 200 nM
39 | CC1=C(C)C(=O)C(C(CCCO)c2ccccc2)=C(C)C1=O (stereo not drawn) [compound 46] | 730 nM
